Key:
PsPrnB [1] = target: T1, PsPrnB; test: UV-visible absorption titration of the ferric enzyme; resonance Raman; assay type: binding, Pseudomonas sp. ADAK18
T1 construct: gene prnB; N-terminal His6-tag (TEV-cleavable)

FbPrnB [2] = target: T2, FbPrnB (Flavobacteriales bacterium, UniProt A0AC62AEF3); test: X-ray crystal structure of the binary complex; assay type: binding
T2 construct: N-terminal His-tag
T2 sequence (A0AC62AEF3 1-350): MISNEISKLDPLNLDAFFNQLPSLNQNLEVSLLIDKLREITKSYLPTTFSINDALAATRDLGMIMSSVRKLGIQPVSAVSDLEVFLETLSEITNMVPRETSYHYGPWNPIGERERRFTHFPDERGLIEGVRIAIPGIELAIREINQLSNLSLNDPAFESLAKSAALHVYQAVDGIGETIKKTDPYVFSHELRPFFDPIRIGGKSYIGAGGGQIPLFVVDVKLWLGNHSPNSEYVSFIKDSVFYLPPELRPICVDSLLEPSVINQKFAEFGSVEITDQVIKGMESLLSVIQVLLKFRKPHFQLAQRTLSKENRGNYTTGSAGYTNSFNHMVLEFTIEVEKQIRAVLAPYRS

FbPrnB [3] = target: T2, FbPrnB; test: X-ray crystal structure of the binary complex; UV-visible; resonance Raman; assay type: binding
PsPrnB [4] = target: T1, PsPrnB; test: UV-visible absorption titration of the ferric enzyme; EPR; resonance Raman; assay type: binding, Pseudomonas sp. ADAK18
FbPrnB [5] = target: T2, FbPrnB; test: X-ray crystal structure of the binary complex ([…] and […] occupancy); assay type: binding

Row | SMILES | Kd (PsPrnB [1]) | X-ray crystal structure of the binary complex (FbPrnB [2]) | X-ray crystal structure of the binary complex; UV-visible; resonance Raman (FbPrnB [3]) | Kd (PsPrnB [4]) | X-ray crystal structure of the binary complex (75% and 90% occupancy) (FbPrnB [5])
1 | N[C@@H](Cc1c[nH]c2c(Cl)cccc12)C(=O)O [7-Cl-Trp, 7-chloro-L-tryptophan] | 1.9 µM | binding conformations of 7-Cl-Trp and Trp are nearly identical (Fig. S7A), with the amino group directly coordinating to the iron center | – | – | –
2 | N[C@@H](Cc1c[nH]c2ccccc12)C(=O)O [Trp, L-tryptophan] | – | – | binding conformations of 7-Cl-Trp and Trp are nearly identical (Fig. S7A), with the amino group directly coordinating to the iron center | 4.1 µM | –
3 | O=C(O)CCc1c[nH]c2ccccc12 [IDPA, 3-indolepropionic acid] | – | The structure of the IDPA-bound complex aligns well with our spectroscopic data, confirming that IDPA does not directly interact with the iron | – | 9.1 µM | –
4 | NCCc1c[nH]c2ccccc12 [TAM, tryptamine] | – | – | – | 411 µM | The amine tail is flexible and adopts two distinct conformations in Chain A (Fig. 5D), with one remaining in coordination

Reference: paper PMC11791213, “Elucidating ligand interactions and small-molecule activation in the pyrrolnitrin biosynthetic enzyme PrnB” (The Journal of Biological Chemistry, 2024)
